Reference: patent publication US12022830B2, “Formulations of metal and ascorbic acid complexes, their obtaining and use” (INTERMAG SP. Z O.O., priority 2017, dated 2024)

Legend:
[1] = tested on: diseases affecting the plant spikes; experiment: Vanadyl ascorbate on wheat of Figura type, diseases affecting the plant spikes; format: in vivo; settings: initial studies, analogous to the titanium complex
From the text: In the case of diseases attacking spikes, on the control combination, infestation by Cladosporium herbarum at 20%, by Septoria nodorum at 10% and by Gibberella avenacea at 10% were found. On sprayed plants, infestations were 1%, 1% and 0% respectively.

[2] = tested on: Radish (Raphanus sativus) of Ronda type; experiment: Vanadyl ascorbate in cultivation of radish; format: in vivo; settings: foliar twice, 0.004% V, total 20 g V/ha
Method: Radish (Raphanus sativus) of Ronda type was cultivated in a plastic tunnel in a peat substrate. Vanadyl ascorbate at a 1:2 molar ratio of V:Asc (VO(C6H7O6)2.2H2O) was applied in the form of foliar spraying twice during the entire cultivation, vanadium concentration in the working liquid was 0.004% V. In two applications, the total vanadium dose per hectare was 20 g V/ha. The experiment was performed in a random block system, combinations were drawn in 4 blocks. There were 20 plants for each combination.
Foliar application of vanadyl ascorbate VO(C6H7O6)2.2H2O has increased the mass of radish root by 12% compared to the control plants. […] Furthermore, in vanadium treated plants, the content of flavonoids responsible for protecting plant cells from oxidative stress, which is caused, among others, by through drought, has increased almost twice as compared to the control.

[3] = Study of solution stability for a given complex; format: physicochemical; settings: complexes in the form of solutions
[4] = tested on: fusarium foot and root rot; experiment: Fusarium foot and root rot on wheat; format: in vivo; settings: wheat of Figura type, initial studies, analogous to the titanium complex
[5] = tested on: celery (Apium graveolens); experiment: Vanadyl ascorbate in cultivation of celery; format: in vivo; settings: for root mass increase compared to plants from the control object: celery; for Chlorophyll / Dry mass of leaves / Dry mass of root / Flavonoids / Mass of celery leaves / Mass of celery root: sprayed three times
Method: Cultivation of celery (Apium graveolens) was carried out in a plastic tunnel in pots with a capacity of 3 l filled with peat substrate. Vanadyl ascorbate at a 1:2 molar ratio of V:Asc (VO(C6H7O6)2.2H2O) was applied three times during the entire cultivation in BBCH phases: 4-16 (4-6 leaves), 19-40 (10 and more leaves) and 42-44 (root development) in the form of fine-droplet spraying. Two vanadium doses of 5 g V/ha (0.001%) and 10 g V/ha (0.002%) were used. The experiment was performed in a random block system, combinations were drawn in 4 blocks. There were 20 celery plants for each combination.
The mass of celery leaves has been increased both by the application of vanadium in the amount of 5 g and 10 g/ha. […] For a smaller dose, root mass has increased by 23%, while for a dose of 10 g V/ha by 11% compared to plants from the control object. A dose of 5 g V/ha positively influenced the quality parameters of celery, the dry mass of leaves, the content of chlorophyll and flavonoids have increased. However, a dose of 10 g V/ha contributed to the increase in dry mass of leaves and to the increase in content of flavonoids. The results of this experiment indicate a biostimulatory effect of low doses of vanadium on the utility yield increase of vegetable plants and its qualitative parameters.

iceberg lettuce = experiment: Vanadyl ascorbate in cultivation of iceberg lettuce, head mass, chlorophyll, flavonoids, nutrients; format: in vivo, Lactuca sativa; settings: foliar twice, total 10 g V/ha
From the text: Iceberg cabbage lettuce (Lactuca sativa) of Rubette type was cultivated in a plastic tunnel in pots with a capacity of 3 l filled with a peat substrate. Titanil ascorbate at a 1:2 molar ratio of Ti: Asc (TiO(C6H7O6)2.2H2O) and liquid titanil ascorbate at a 1.5:1 molar ratio of (obtained in situ—according to the method of patent specification PL 163688 or PL 214628) were applied in a foliar manner twice during the entire cultivation, the concentration of titanium in the working liquid for both formulations was 0.00085% Ti. In two applications, the total titanium dose per hectare was 3.4 g Ti/ha. The experiment was performed in a random block system, combinations were drawn in 4 blocks. There were 20 lettuce plants for each combination.
The experiment was performed analogously to the titanium complex at a 1:2 or 1.5:1 (Example 20) molar ratio of Ti:ascorbic acid. VO(C6H7O6)2.2H2O was used in the form of foliar spraying twice, vanadium concentration in the working liquid was 0.001% V. In two applications, the total micronutrient dose per hectare was 10 g V/ha.
Foliar application of VO(C6H7O6)2.2H2O increased the mass of the lettuce head by 14% compared to the control. Furthermore, vanadium ascorbate at a 1:2 molar ratio of V:Asc increased the chlorophyll content. Also, differences were found in the level of flavonoid accumulation between the control object and the combination treated with VO(C6H7O6)2.2H2O.

## O.O.O=C1OC(C(O)CO)C([O-])=C1O.O=C1OC(C(O)CO)C([O-])=C1O.[O]=[V+2] (stereo not drawn) [VO(C6H7O6)2•2H2O, vanadyl ascorbate]
[1]
  effect on the elimination of symptoms caused by diseases affecting the plant spikes: positive effect
[2]
  Chlorophyll: 19.1 μg/cm^2
  Dry mass of root: 4.8%
  Flavonoids: 0.88 μg/cm^2
  Mass of radish root: 19.5 g
  increase of the content of flavonoids compared to the control: almost twice
  increase of the mass of radish root compared to the control plants: 12%
[3]
  stability of the solution among the complexes: most stable
[4]
  effect on the elimination of symptoms caused by fusarium foot and root rot: positive effect
[5]; dose of 5 g V/ha
  root mass increase compared to plants from the control object: 23%
[5]; dose of 10 g V/ha
  root mass increase compared to plants from the control object: 11%
[5]; dose of 5 g V/ha (0.001%)
  Chlorophyll: 35.0 μg/cm^2
  Dry mass of leaves: 8.9%
  Dry mass of root: 2.9%
  Flavonoids: 0.77 μg/cm^2
  Mass of celery leaves: 320.3 g
  Mass of celery root: 90.7 g
[5]; dose of 10 g V/ha (0.002%)
  Chlorophyll: 32.0 μg/cm^2
  Dry mass of leaves: 9.5%
  Dry mass of root: 3.1%
  Flavonoids: 0.72 μg/cm^2
  Mass of celery leaves: 317.3 g
  Mass of celery root: 78.5 g
Iceberg lettuce; iceberg lettuce, 0.001% V
  Chlorophyll: 29.6 μg/cm^2
  Dry mass: 6.85%
  Flavonoids: 0.29 μg/cm^2
  Mass of lettuce head: 78.2 g
  increase of the mass of the lettuce head compared to the control: 14%
Iceberg lettuce; lettuce, g/kg d.c.
  Ca content: 18.17 g/kg
  K content: 21.84 g/kg
  Mg content: 4.92 g/kg
  P content: 3.42 g/kg
  S content: 2.69 g/kg
